Measured values published in patent EP1247803A2, “Indolinone compounds suitable for modulation of protein kinases” (Sugen, Inc., priority 1996, dated 1998).

Experiments:
MET = MET biochemical kinase assay; set-up: species or system human; concentration or dose not given beside the values
Method in brief: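 MET from cell lysates captured on ELISA plates via rabbit anti-MET cytoplasmic-domain antibody; compounds added and kinase reaction run in ATP and divalent-metal buffer. Receptor phosphotyrosine detected with HRP-conjugated anti-phosphotyrosine antibody and TMB colorimetry.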

PDGF-R = PDGF-R (Homo sapiens, UniProt P09619); assay: PDGF-R ELISA; assay type: cell-based
Chain of PDGF-R (P09619 33-1106, species assumed): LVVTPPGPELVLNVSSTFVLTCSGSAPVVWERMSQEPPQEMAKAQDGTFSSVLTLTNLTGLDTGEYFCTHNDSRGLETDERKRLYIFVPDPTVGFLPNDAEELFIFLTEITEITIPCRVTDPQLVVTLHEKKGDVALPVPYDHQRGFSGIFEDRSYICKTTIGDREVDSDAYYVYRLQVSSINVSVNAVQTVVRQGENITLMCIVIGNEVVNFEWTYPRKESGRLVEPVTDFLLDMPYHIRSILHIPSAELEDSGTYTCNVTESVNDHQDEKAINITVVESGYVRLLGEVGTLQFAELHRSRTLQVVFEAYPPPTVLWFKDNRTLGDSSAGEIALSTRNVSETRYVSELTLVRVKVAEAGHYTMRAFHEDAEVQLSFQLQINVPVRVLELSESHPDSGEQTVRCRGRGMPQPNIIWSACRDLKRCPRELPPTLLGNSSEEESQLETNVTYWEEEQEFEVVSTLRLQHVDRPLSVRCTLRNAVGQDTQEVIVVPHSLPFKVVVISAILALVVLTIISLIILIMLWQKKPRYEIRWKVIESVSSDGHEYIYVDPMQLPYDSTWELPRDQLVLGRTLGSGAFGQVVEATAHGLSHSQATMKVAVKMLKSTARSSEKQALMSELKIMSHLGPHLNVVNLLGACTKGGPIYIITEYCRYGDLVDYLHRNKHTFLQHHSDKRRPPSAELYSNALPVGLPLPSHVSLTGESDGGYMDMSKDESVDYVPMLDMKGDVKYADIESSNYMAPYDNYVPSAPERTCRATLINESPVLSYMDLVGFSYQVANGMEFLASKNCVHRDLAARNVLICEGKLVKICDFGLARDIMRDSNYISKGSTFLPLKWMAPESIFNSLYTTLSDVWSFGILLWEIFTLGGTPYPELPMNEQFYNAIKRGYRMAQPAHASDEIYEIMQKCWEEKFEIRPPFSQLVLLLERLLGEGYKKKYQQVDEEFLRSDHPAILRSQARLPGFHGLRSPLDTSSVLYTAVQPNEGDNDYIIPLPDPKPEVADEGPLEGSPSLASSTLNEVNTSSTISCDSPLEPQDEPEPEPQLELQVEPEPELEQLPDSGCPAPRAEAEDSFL
From the text: A PDGF-R ELISA is described in International Patent Publication No. WO 96/40116, published December 19, 1996 by Tang et al.

EGFR = molecular target: T1, EGFR (Homo sapiens, UniProt P00533); assay: EGFR ELISA assay (in vitro kinase activity, EGFR captured from A431 cell lysate); assay type: biochemical; set-up: concentration or dose not given beside the values
T1 construct: Add 7 ug A431 cell lysate per well (EGFR source); endogenous in cells; host or cells: A431
T1 sequence (P00533 25-1210): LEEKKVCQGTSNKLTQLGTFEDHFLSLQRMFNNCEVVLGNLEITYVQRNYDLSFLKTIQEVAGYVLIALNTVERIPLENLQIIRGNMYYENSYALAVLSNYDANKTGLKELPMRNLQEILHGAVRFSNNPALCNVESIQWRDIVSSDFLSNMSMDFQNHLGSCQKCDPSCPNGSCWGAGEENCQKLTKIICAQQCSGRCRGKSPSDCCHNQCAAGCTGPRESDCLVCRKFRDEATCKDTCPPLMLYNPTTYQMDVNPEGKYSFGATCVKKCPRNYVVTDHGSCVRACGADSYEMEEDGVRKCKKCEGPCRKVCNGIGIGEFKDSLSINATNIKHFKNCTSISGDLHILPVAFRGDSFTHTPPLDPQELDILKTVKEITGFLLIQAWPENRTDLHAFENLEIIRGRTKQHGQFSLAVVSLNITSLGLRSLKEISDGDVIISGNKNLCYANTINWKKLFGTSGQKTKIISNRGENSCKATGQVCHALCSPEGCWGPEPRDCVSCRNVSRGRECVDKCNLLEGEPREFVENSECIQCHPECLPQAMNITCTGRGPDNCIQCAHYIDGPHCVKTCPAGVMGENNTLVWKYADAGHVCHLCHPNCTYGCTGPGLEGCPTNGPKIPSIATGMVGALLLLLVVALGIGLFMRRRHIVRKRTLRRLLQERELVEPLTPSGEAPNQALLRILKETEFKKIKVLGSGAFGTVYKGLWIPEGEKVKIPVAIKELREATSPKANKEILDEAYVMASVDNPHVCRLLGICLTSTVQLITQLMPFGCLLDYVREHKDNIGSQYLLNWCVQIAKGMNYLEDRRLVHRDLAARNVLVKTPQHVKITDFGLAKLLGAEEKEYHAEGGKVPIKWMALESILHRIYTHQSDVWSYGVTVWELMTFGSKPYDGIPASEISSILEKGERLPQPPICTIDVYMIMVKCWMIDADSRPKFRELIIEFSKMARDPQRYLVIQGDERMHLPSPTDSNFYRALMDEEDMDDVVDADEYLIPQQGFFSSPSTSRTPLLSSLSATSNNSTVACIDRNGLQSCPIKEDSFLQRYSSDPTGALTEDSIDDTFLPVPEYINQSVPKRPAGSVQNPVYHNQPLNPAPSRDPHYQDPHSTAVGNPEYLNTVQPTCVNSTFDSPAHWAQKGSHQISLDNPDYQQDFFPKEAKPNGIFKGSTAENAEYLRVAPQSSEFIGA
From the text: To provide a consistent method for measuring the in vitro kinase activity of the EGFR in an Enzyme-linked immunosorbent assay (Elisa).
Scope. The following protocol describes the procedures used to analyze protein tyrosine kinase activity on the EGFR in an Elisa. The procedure also describes the protocol for the initial screening of drugs for inhibition or activation of protein tyrosine kinase activity.
Reagents and Supplies. • 1. […] 05-101 monoclonal anti-EGFR antibody (commercially available from UB1) -80° C, 1 ml aliquots • 3. […] TBST Buffer Formulation: 50 mM Tris pH 7.2 150 mM NaCl 0.1% Triton X-100 • 5. Blocking Buffer Formulation: 5% Carnation Instant Milk in PBS • 6. A431 cell lysate A431 cells are available from a variety of commercial sources and may be used lysed using conventional methods known to those skilled in the art or as described for lysis of the 3T3 cells in the EGF cellular assay described herein. -80° C, 1 ml aliquots • 7. TBS Buffer Formulation: 50 mM Tris pH 7.2 150 mM NaCl • 8. […] NUNC 96-well V bottom polypropylene plates Applied Scientific Catalog # AS-72092 • 11. EDTA Formulation: 200 mM EDTA pH 8.0 • 12. […] Goat anti-rabbit IgG peroxidase conjugate Biosource Catalog # ALI0404 • 14. ABTS Solution Formulation: 100 mM Citric Acid (anhydrous) 250 mM Na2HPO4 pH 4.0 0.5 mg/ml ABTS (2,2'-azino-bis(3-ethylbenzthiazoline-6-sulfonic acid) (Sigma Catalog # A-1888) Keep solution in dark at 4 C until ready to use • 15. Hydrogen peroxide 30% solution Fisher Catalog # H325 Store in the dark at 4 C until ready to use • 16. ABTS/H2O2 Formulation: 15 mls ABTS solution 2 ul H2O2 Prepare 5 minutes before use and room temperature • 17. 0.2 M HCL stock in H2O Procedure. • 1. Coat Corning 96-well elisa plates with 0.5 ug per well 05-101 antibody. Bring final volume to 100 ul per well with PBS. Coat plates overnight at 4° C. • 2. Remove unbound 05-101 from wells by inverting plate to remove liquid. Wash 1x with distilled H2O by filling wells Pat the plate on a paper towel to remove excess liquid. • 3. Block plates with 5% milk in PBS. 150 ul per well. Incubate plate 30 minutes while shaking on a microtiter plate shaker. • 4. Wash plate 3x with dionized water, then once with TBST • 5. Add 7 ug A431 cell lysate per well (EGFR source). Add PBS to final volume of 100 ul per well Incubate 30 minutes while shaking. • 6. Wash as described in step 4. • 7. At this point, drugs or extracts are added to the wells. Dilute drugs/extracts 1:100 (unless specified otherwise) in TBS + 10% DMSO in 96-well polypropylene plates. Add 120 ul TBS to ELISA plate containing captured EGFR. Add 13.5 ul diluted drugs/extracts to ELISA plate. […] Incubate plate 30 minutes while shaking. • 8. […] (150 ul final volume in well with 3 uM ATP/5 mM MnCl2 final concentration in well.) Incubate 5 minutes while shaking vigorously. *NOTE: It is critical that ATP/MnCl2 phosphorylates the receptor for 5 minutes only. It is best to add the ATP/MnCl2 with an 12 channel pipettor 1 row at a time leaving 20 seconds between each row so that the reaction may be stopped with EDTA exactly 5 minutes later (this depends on the number of plates being phosphorylated in one batch). Shake between each addition. • 9. After 5 minutes, to stop reaction, add 16.5 ul of 200 mM EDTA pH 8.0 for 20 mM final in well, shaking continuously between each addition. This is done using the same timing method as above. After last row has received EDTA, shake plate an additional minute. • 10. Wash 4x with deionized water, twice with TBST. • 11. Add rabbit polyclonal anti-phosphotyrosine serum. Dilute 1:3000 in TBST. Add 100 ul per well. Incubate 30-45 minutes while shaking. • 12. Wash as described above in step 4. • 13. Add BioSource anti-rabbit peroxidase conjugate antibody. Dilute 1:2000 in TBST. Add 100 ul per well. Incubate 30 minutes while shaking. • 14. Wash as described in step 4. • 15. Add 100 ul of ABTS/H2O2 solution to well. Incubate 5 to 10 minutes while shaking. Remove bubbles • 16. […]

| SMILES | Met Kinase % Inhibition (MET) | PDGF Kinase %Inhibition (PDGF-R) | Biochem EGFR %Inhibition (EGFR) |
| --- | --- | --- | --- |
| CNS(=O)(=O)c1ccc2c(c1)C(=Cc1cc(Br)ccc1O)C(=O)N2 [10733/D09] | 38.7% | 33.8% | 48.3% |
| O=C1Nc2ccc(I)cc2C1=Cc1cc([N+](=O)[O-])ccc1O [10733/B10] | 65.1% | -59.6% | 11.8% |
| O=C1Nc2ccc(S(=O)(=O)Nc3ccc(C(F)(F)F)cc3)cc2C1=CC(c1cccs1)C(F)(F)F (stereo not shown) [10732/E02] | 33.3% | 4.8% | 0.8% |
| CC(C)c1cc(C=C2C(=O)Nc3ccc(S(=O)(=O)N4CCOCC4)cc32)cc(C(C)C)c1Oc1ccccc1 [10732/F04] | 57.2% | 23.5% | -0.1% |
| COc1c(Cl)cc(C=C2C(=O)Nc3ccc(S(=O)(=O)N4CCOCC4)cc32)cc1C(C)(C)C [10732/F09] | 79.7% | 25.5% | -13.4% |
| COc1c(C)cc(C=C2C(=O)Nc3ccc(Br)c(C)c32)cc1C [10733/C06] | 4.1% | 20.0% | 22.7% |
| CC(C)(C)c1cc(C=C2C(=O)Nc3ccc(S(=O)(=O)Nc4ccc(C(F)(F)F)cc4)cc32)ccc1OCc1ccccc1 [10732/E06] | -2.1% | 16.9% | -11.0% |
| O=C1Nc2c(Br)cc(Br)cc2C1=Cc1cc(Br)ccc1O [10733/A09] | 22.1% | -7.6% | 25.9% |
| CCOC(=O)c1c(C)[nH]c(C=C2C(=O)Nc3ccc(S(=O)(=O)Nc4ccc(C(F)(F)F)cc4)cc32)c1C [10718/E02] | 46.3% | – | 1.0% |
| CC(C)(C)c1cc(C=C2C(=O)Nc3ccc(I)cc32)cc(I)c1OCc1ccccc1 [10733/B02] | 74.6% | 14.7% | 31.6% |
| CNS(=O)(=O)c1ccc2c(c1)C(=Cc1cc(C(C)(C)C)c(OCc3ccccc3)c(C(C)(C)C)c1)C(=O)N2 [10733/D05] | 25.1% | 16.8% | 10.6% |
| COc1c(C(C)(C)C)cc(C=C2C(=O)Nc3c(Br)cc(Br)cc32)cc1C(C)(C)C [10733/A04] | 24.0% | -14.1% | 32.8% |
| COc1c(I)cc(C=C2C(=O)Nc3ccc(S(=O)(=O)Nc4ccc(C(F)(F)F)cc4)cc32)cc1C(C)(C)C [10732/E11] | 41.4% | 47.7% | -32.2% |
| COc1ccc(C=C2C(=O)Nc3ccc(CCCl)cc32)cc1C(C)(C)C [10732/G05] | 15.2% | 15.4% | 3.8% |
| COc1c(C(C)(C)C)cc(C=C2C(=O)Nc3ccc(Br)c(C)c32)cc1C(C)(C)C [10733/C04] | 18.4% | 19.2% | 29.0% |
| CNS(=O)(=O)c1ccc2c(c1)C(=Cc1ccc(O)c(OC)c1[N+](=O)[O-])C(=O)N2 [10733/D11] | 31.6% | -4.0% | 33.7% |
| O=C1Nc2ccc(S(=O)(=O)N3CCOCC3)cc2C1=CC(c1cccs1)C(F)(F)F (stereo not shown) [10732/F02] | 55.6% | -9.4% | 23.1% |

| SMILES | Met Kinase % Inhibition (MET) | PDGF Kinase %Inhibition (PDGF-R) | Biochem EGFR %Inhibition (EGFR) |
| --- | --- | --- | --- |
| CC(C)(C)c1cc(C=C2C(=O)Nc3ccc(CCCl)cc32)cc(Br)c1OCc1ccccc1 [10732/G08] | 44.7% | 37.6% | -20.4% |
| CNS(=O)(=O)c1ccc2c(c1)C(=Cc1cc(C)c(OC)c(C)c1)C(=O)N2 [10733/D06] | -19.4% | 1.3% | 30.8% |
| COc1c(O)ccc(C=C2C(=O)Nc3ccc(Br)c(C)c32)c1[N+](=O)[O-] [10733/C11] | 35.1% | 62.2% | 15.8% |
| CC(C)(C)c1cc(C=C2C(=O)Nc3c(Br)cc(Br)cc32)cc(I)c1OCc1ccccc1 [10733/A02] | 74.6% | 11.5% | 25.9% |
| CNS(=O)(=O)c1ccc2c(c1)C(=Cc1c(C)[nH]c(C(=O)OC)c1C(=O)OC)C(=O)N2 [10718/D07] | 26.1% | – | 5.6% |
| CC(C)c1cc(C=C2C(=O)Nc3ccc(CCCl)cc32)cc(C(C)C)c1Oc1ccccc1 [10732/G04] | 24.9% | 25.0% | 8.0% |
| CC(C)(C)c1cc(C=C2C(=O)Nc3ccc(CCCl)cc32)cc(Cl)c1OCc1ccccc1 [10732/G10] | 45.7% | 20.4% | -38.2% |
| COc1c([N+](=O)[O-])cc(C=C2C(=O)Nc3ccc(Br)c(C)c32)cc1C(C)(C)C [10733/C03] | 29.3% | 28.1% | 14.4% |
| COc1c(C(C)C)cc(C=C2C(=O)Nc3ccc(CCCl)cc32)cc1C(C)C [10732/G03] | 38.1% | 36.1% | -20.0% |
| CC(C)(C)c1cc(C=C2C(=O)Nc3ccc(CCCl)cc32)ccc1OCc1ccccc1 [10732/G06] | 16.2% | 0.2% | -12.1% |
| COc1cccc(O)c1C=C1C(=O)Nc2c(Br)cc(Br)cc21 [10717/A10] | 71.6% | – | 8.1% |
| CNS(=O)(=O)c1ccc2c(c1)C(=Cc1ccc([N+](=O)[O-])o1)C(=O)N2 [10718/D11] | 11.3% | – | 5.4% |
| CNS(=O)(=O)c1ccc2c(c1)C(=Cc1ccco1)C(=O)N2 [10718/D10] | 55.3% | – | 12.3% |
| CNS(=O)(=O)c1ccc2c(c1)C(=Cc1ccc(O)c(C)c1O)C(=O)N2 [10718/D09] | 9.9% | – | 6.0% |
| CNS(=O)(=O)c1ccc2c(c1)C(=Cc1ccc(Cl)c([N+](=O)[O-])c1)C(=O)N2 [10718/D08] | 2.3% | – | 3.0% |
| COc1cc(Br)c(O)c(C=C2C(=O)Nc3ccc(S(=O)(=O)Nc4ccc(C(F)(F)F)cc4)cc32)c1 [10718/E03] | 95.3% | – | 50.4% |
